The record followed here is patent US20120064531A1, “MODIFIED NUCLEOTIDE AND REAL-TIME POLYMERASE REACTION USING THE SAME” (Korea Institute of Science and Technology, priority 2010, published 2012).

Test [1] has as its system Therminator γ DNA polymerase. Nature of the test: Quantitative real-time PCR analysis (fluorescence after each cycle, Ct standard curve). The following applies: for Sensitivity (Required PCR cycles for 1 copy number: Y-intercept): real-time PCR standard curve, a lower value means more sensitivity; for (Efficiency, %) [100 × (10^(−1/slope) − 1)]: real-time PCR, template 10 nM to 10 fM, 40 cycles, Max = 100%. Format: biochemical. The method, then: Total of 40 cycles of PCR was performed, wherein each cycle consists of 94° C. for 10 sec, 54° C. for 15 sec, and 72° C. for 10 sec. After each cycle was completed, fluorescence intensity was measured in real time by using StepOne real-time PCR system (ABI). […] Ct (threshold cycle) value was set up by determining the point at which the threshold encounters the polymerization curve. […] Analysis was performed under the PCR conditions, the equipment and the method identical to that of <example 4>.

Another test deals with T1, Taq DNA polymerase (Thermus aquaticus, UniProt P19821).
T1 construct: purchased New England Biolabs
T1 sequence (P19821 whole entry): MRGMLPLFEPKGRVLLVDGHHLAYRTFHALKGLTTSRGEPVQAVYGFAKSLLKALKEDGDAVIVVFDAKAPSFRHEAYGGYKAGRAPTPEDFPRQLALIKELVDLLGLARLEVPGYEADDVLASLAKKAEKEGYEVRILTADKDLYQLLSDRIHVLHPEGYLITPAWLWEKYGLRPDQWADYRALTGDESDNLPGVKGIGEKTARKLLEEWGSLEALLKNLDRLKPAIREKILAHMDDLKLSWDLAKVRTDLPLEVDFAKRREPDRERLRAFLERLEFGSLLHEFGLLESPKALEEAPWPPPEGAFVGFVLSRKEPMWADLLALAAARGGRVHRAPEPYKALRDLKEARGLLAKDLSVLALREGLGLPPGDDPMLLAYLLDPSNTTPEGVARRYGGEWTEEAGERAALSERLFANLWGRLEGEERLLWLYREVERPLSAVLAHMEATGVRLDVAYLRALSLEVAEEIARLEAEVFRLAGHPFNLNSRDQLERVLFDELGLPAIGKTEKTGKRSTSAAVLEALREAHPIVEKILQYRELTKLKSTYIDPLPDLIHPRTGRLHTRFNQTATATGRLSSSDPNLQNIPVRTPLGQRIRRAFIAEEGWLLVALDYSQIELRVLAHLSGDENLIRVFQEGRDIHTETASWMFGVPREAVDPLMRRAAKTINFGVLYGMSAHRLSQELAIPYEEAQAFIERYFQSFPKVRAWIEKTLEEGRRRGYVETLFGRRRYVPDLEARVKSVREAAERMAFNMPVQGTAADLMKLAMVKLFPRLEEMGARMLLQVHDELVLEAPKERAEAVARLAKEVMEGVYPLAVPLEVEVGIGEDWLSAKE
Description: Primer extension reaction with PAGE to search for a DNA polymerase able to use γF-dGTP as a substrate. The following applies: γF-dGTP 25 uM instead of dGTP; 5 cycles 94/46/60° C.; 20% denaturing PAGE, FIG. 3. Format: biochemical. The protocol:
(§1) In order to search DNA polymerase, primer extension reaction was performed.
(§2) More specifically, the mixed reaction solution was heated by repeating five times a cycle consisting of 20 sec at 94° C., 40 sec at 46° C., and 90 sec at 60° C.
For a control group experiment, Taq DNA polymerase reaction was performed by using dGTP in a natural state instead of γF-dGTP under the same conditions mentioned above.
(§3) After each polymerase reaction, the mixed reaction solution was developed (Vertical Gel Electrophoresis Unit, Sigma-Aldrich) by using 20% denaturing polyacrylamide gel electrophoresis (PAGE). As a result, an image of DNA fluorescence band was obtained by using scanner (Typhoon9400, GE healthcare).

The target in a further test is Phi29 DNA polymerase (Bacillus phage phi29, UniProt P03680). The following applies: γF-dGTP 25 uM, 30° C. for 20 min, read every 20 sec; FIG. 6. The protocol: Real-time RCA (rolling circle amplification) analysis was performed by using 20 ul of mixed reaction solution comprising the primer having SEQ ID: 6 (5′-[…], 100 nM), the template chain having SEQ ID: 7 (5′-[…] […], 100 nM), dATP (25 uM, Promega), dCTP (25 uM, Promega), dTTP (25 uM, Promega), γF-dGTP (25 uM), BSA (100 μg/mL), Phi29 DNA polymerase reaction buffer (New England Biolabs), and Phi29 DNA polymerase. (6 units) The reaction was performed at 30° C. for 20 min and fluorescence intensity at every 20 sec was measured by the equipment used in <example 4>.
Phi29 DNA polymerase, sequence (P03680 whole entry): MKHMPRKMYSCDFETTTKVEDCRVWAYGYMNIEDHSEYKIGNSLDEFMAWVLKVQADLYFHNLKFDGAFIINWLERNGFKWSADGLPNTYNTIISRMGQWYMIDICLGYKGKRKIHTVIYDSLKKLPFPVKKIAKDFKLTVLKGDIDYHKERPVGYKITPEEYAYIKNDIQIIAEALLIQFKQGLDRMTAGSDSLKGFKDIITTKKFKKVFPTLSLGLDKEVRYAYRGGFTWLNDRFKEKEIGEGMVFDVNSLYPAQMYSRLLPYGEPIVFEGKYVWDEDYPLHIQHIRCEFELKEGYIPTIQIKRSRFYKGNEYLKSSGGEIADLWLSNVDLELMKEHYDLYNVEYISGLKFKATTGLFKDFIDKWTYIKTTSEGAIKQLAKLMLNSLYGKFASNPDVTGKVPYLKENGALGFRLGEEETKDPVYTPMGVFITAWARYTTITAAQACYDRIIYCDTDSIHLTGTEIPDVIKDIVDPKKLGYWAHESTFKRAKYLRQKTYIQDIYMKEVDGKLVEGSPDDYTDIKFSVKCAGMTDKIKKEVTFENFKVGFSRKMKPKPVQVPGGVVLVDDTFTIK

Test [2] has as its system Therminator γ DNA polymerase. Description: Primer extension reaction with PAGE to search for a DNA polymerase able to use γF-dGTP as a substrate. In kind it is biochemical. To be noted: γF-dGTP 25 uM instead of dGTP; 5 cycles 94/46/60° C.; 20% denaturing PAGE, FIG. 3. The protocol:
as §1, §2, §3

As to `CCCN(CCCN(C)C)c1cc(/C=C2/Sc3ccccc3N2C)c2ccccc2[n+]1-c1ccccc1` [SYBR green I, reference compound], in test [1], the “Sensitivity (Required PCR cycles for 1 copy number: Y-intercept)” value is listed as 47.2 and the “(Efficiency, %) [100 × (10^(−1/slope) − 1)]” value came out at 80.5%.

For the compound `CC1=CC(C)=[N+]2C1=Cc1ccc(CCC(=O)NCCNP(=O)(O)OP(=O)(O)OP(=O)(O)OC[C@H]3O[C@@H](n4cnc5c(=O)[nH]c(N)nc54)C[C@@H]3O)n1[B-]2(F)F` [γF-dGTP], the “Use as a substrate by the polymerase (fully extended polymerization product on PAGE)” value on Taq DNA polymerase is “can use the modified nucleotide as a substrate”. In test [1], the “Sensitivity (Required PCR cycles for 1 copy number: Y-intercept)” value worked out at 41.5 and the “(Efficiency, %) [100 × (10^(−1/slope) − 1)]” value was determined as 93.4%. In addition, the “Fluorescence intensity during real-time RCA” value on Phi29 DNA polymerase was “fluorescence intensity increases”. Besides, the “Use as a substrate by the polymerase (fully extended polymerization product on PAGE)” value in test [2] is “can use the modified nucleotide as a substrate”.
